{"source": "paper PMC8879660", "about": "“Characterizing the Physicochemical Properties of Two Weakly Basic Drugs and the Precipitates Obtained from Biorelevant Media” (Pharmaceutics, 2022)", "key": {"[1]": {"experiment": "Intrinsic dissolution rate (disc method, Mini-IDR)", "type": "physicochemical", "details": "same dissolution medium, 37 °C, 200 rpm", "procedure": "The intrinsic dissolution rate (IDR) of compounds with different crystal structures was measured by the disc method based on the literature. About 10 mg of powder was loaded into the Mini-IDR compression system (Pion Inc., Billerica, MA, USA) and compressed at 100 psi (rivaroxaban) and 200 psi (Drug-A) for 1 min to obtain the miniaturized discs with a surface area of 0.071 cm^2. The discs were inserted into stirrer-die assembly and placed into flat-bottomed glass vials for dissolution analysis. At the start of the experiments, the magnetic stirrer was immediately switched on with the speed of 200 rpm, and then 10 mL of preheated (37 °C) dissolution media (FaSSIF buffer medium, FeSSIF buffer medium, FaSSIF medium and FeSSIF medium) were added into the vials at a constant temperature. The concentration was determined directly in the dissolution media every 30 s using an in situ UV probe for 2 h. All experiments were performed in triplicate, and the IDR was calculated with the following equation [30]:(1) IDR=V×dc/dt×1/A where V is the volume of medium in the glass vial; dc/dt is the slope of the straight line from the dissolution profile; A is the surface area of the disc."}, "[2]": {"experiment": "Stirring PAMPA permeability assay of precipitates and API in different donor media", "type": "in vitro ADME", "procedure": "In order to simulate the permeation of compounds in different crystal structures in the GI tract, the stirring PAMPA method (Pion Inc., Billerica, MA, USA) was used to assess the passive transcellular permeability. The donor and acceptor chambers representing the GI tract and systemic circulation were separated by the artificial membrane (PVDF, polyvinylidenfluoride, 0.45 μm, 0.78 cm^2). The membrane surface was coated with 20 μL of lipid, which was used to simulate the microenvironment of lipids in vivo. Then, 16 mL PBS/FaSSIF/FeSSIF medium with pH 5.0 was added into the donor chamber, and 16 mL sink buffer was added into the acceptor chamber. In order to simulate the redissolution progress of precipitate in the GI tract, a slight excess of crystalline powder was added into the donor chamber. Both chambers were stirred at 200 rpm at 37 °C, and the concentration of each chamber was detected by immersed UV-probes at 320 nm and 340 nm for rivaroxaban and Drug-A, respectively. The flux was defined as the amount of compound passing through the unit area perpendicular to its flow direction in unit time and was calculated by the following equation [31]:(2) J(t)=Ct2−Ct1/A(t2−t1)×V where J(t) is the flux of a compound; Ct is the concentration of compound at t; V is the solution volume of the donor chamber; A is the area of the artificial membrane. […]"}, "[3]": {"experiment": "Equilibrium solubility of API in different media", "type": "physicochemical", "details": "37 °C, 200 rpm", "procedure": "To select an appropriate method for the preparation of precipitates, the equilibrium solubility of model drugs was firstly investigated in various media, including pH 1.0 HCl solution, pH 5.0, pH 6.5, and pH 8.0 phosphate buffer solution (PBS), fasted state simulated intestinal fluid (FaSSIF, Fa), and fed-state simulated intestinal fluid (FeSSIF, Fe). The excess sample was added to the medium, and the test of equilibrium solubility was performed with the stirring rate of 200 revolutions per minute (rpm) under 37 °C for 24 h. Sample concentration was detected every minute by Pion’s in situ fiber-optic UV dissolution monitoring system (Pion Scientific Instruments, Billerica, MA, USA), a real-time online detector. All measurements were performed in triplicate."}, "[4]": {"experiment": "Equilibrium solubility / dissolution of precipitates and API in pH 6.5 FaSSIF buffer", "type": "physicochemical", "details": "FaSSIF buffer pH 6.5, 37 °C", "procedure": "To estimate the solution properties of different crystal structures in near neutral or slightly acidic environments, the equilibrium solubility of various precipitates and API in the pH 6.5 FaSSIF buffer medium (FaB) was investigated. An excess sample was added to the medium, and the test of equilibrium solubility was performed with the stirring rate of 200 revolutions per minute (rpm) under 37 °C for 24 h. Sample concentration was detected every minute by Pion’s in situ fiber-optic UV dissolution monitoring system. All measurements were performed three times."}, "[5]": {"details": "stated in Materials, source not given; cited from earlier work"}}, "note": "Like-named read-outs stand apart in the source and are kept apart here."}
{"smiles": "O=C(NC[C@H]1CN(c2ccc(N3CCOCC3=O)cc2)C(=O)O1)c1ccc(Cl)s1", "note": "[Rivaroxaban]", "values": [{"measurement": "Influence of crystal structure (API vs precipitates) on intrinsic dissolution rate", "setting": "[1]", "result": "significant influence"}, {"measurement": "Permeability of API compared with precipitates", "setting": "[2]; FeSSIF in the donor chamber", "result": "larger than that of precipitates obtained from biorelevant media"}, {"measurement": "Permeability in donor chamber containing aqueous medium relative to donor chamber containing biorelevant medium", "setting": "[2]; donor pH 5.0 PBS vs biorelevant medium, 37 °C, 200 rpm", "result": "about 1.92 fold"}, {"measurement": "solubility at 24 h", "setting": "[3]; FaSSIF, n = 3, read-out: Solubility of API, FaSSIF", "result": 6.17, "unit": "µg/mL"}, {"measurement": "solubility at 24 h", "setting": "[3]; FeSSIF, n = 3, read-out: Solubility of API, FeSSIF", "result": 10.6, "unit": "µg/mL"}, {"measurement": "solubility at 24 h", "setting": "[3]; pH 1.0 HCl solution, n = 3, read-out: Solubility of API, pH 1.0 HCl", "result": 6.84, "unit": "µg/mL"}, {"measurement": "solubility at 24 h", "setting": "[3]; pH 5.0 phosphate buffer solution (PBS), aqueous buffer, thermodynamic from solid, pH 5.0 PBS, n = 3, read-out: Solubility of API, pH 5.0 PBS", "result": 4.85, "unit": "µg/mL"}, {"measurement": "solubility at 24 h", "setting": "[3]; pH 6.5 phosphate buffer solution (PBS), pH 6.5 PBS, n = 3, read-out: Solubility of API, pH 6.5 PBS", "result": 5.85, "unit": "µg/mL"}, {"measurement": "solubility at 24 h", "setting": "[3]; pH 8.0 phosphate buffer solution (PBS), pH 8.0 PBS, n = 3, read-out: Solubility of API, pH 8.0 PBS", "result": 5.87, "unit": "µg/mL"}, {"measurement": "Dissolved rate of precipitates compared with API", "setting": "[4]", "result": "higher than that of API"}, {"measurement": "Difference in equilibrium solubility between API and precipitates obtained from biorelevant media", "setting": "[4]; 24 h, precipitates from FaSSIF, 0.5 × FeSSIF, FeSSIF, 2 × FeSSIF", "result": "no statistical difference"}, {"measurement": "log p", "setting": "[5]", "result": 1.90}, {"measurement": "pKa", "setting": "[5]", "result": 13.6}]}
